According to patent publication US20230081132A1 (priority 2021, published 2023):
In brackets after ≈: the same amount, converted by molar mass. Several values for one entry are separate records, joined by “and”; a condition that tells them apart may be missing. Equal values may be shown once.

Assays:
Type in all cases: binding
TTX monoclonal antibody [1] = system: TTX monoclonal antibody
TTX monoclonal antibody [2] = system: TTX monoclonal antibody; remark: listed apart in the source
TTX monoclonal antibody [3] = system: TTX monoclonal antibody; remark: listed apart in the source

| Molecule | FLT (a.u.) (TTX monoclonal antibody [1]) | IC50 (TTX monoclonal antibody [2]) | competitive inhibition rate (1-T/T0) (TTX monoclonal antibody [3]) | fluorescence signal value of detection line (TTX monoclonal antibody [3]) |
| --- | --- | --- | --- | --- |
| C/C(=C/C=C/[C@@H](C)C(=O)O)[C@H]1CN[C@H](C(=O)O)[C@H]1CC(=O)O [DA] | 503422 a.u. and 504729 a.u. and 501687 a.u. and 506770 a.u. and 503922 a.u. and 508625 a.u. | – | – | – |
| NC1=N[C@H](O)[C@H]2[C@H]3O[C@]4(O)O[C@@H]([C@@H](O)[C@@]2(N1)[C@@H]4O)[C@]3(O)CO [TTX, Tetrodotoxin] | – | 1.713 ng/mL (≈ 5.37 nM) | 0.3 | 343000 a.u. |
| MC-LR | 452864 a.u. and 478692 a.u. and 475179 a.u. and 469265 a.u. and 465390 a.u. and 480375 a.u. | – | – | – |
